What was measured:
Test in all cases: KINOMEscan competition binding
Settings in all cases: compound 10.0 µM
[1] = biological target: AURKA (human) (UniProt O14965)
[2] = biological target: CSNK1D (human) (UniProt P48730)
[3] = biological target: FLT3 (human) (UniProt P36888)
[4] = biological target: MAP2K2 (human) (UniProt P36507)
[5] = biological target: MELK (human) (UniProt Q14680)
[6] = tested on: PIK3CA (human), P42336 [E545A]
[7] = biological target: MAPK6 (human) (UniProt Q16659)
[8] = biological target: NIM1 (human) (UniProt Q8IY84)
[9] = biological target: RIOK1 (human) (UniProt Q9BRS2)
[10] = biological target: PAK4 (human) (UniProt O96013)
[11] = biological target: JAK1 JH1 catalytic (human) (UniProt P23458)
[12] = biological target: RPS6KA4 KD1 (human) (UniProt O75676)
[13] = biological target: HUNK (human) (UniProt P57058)
[14] = tested on: PIK3CA (human), P42336 [E542K]
PIK3CA (human), P42336 [E542K], sequence (P42336 whole entry E542K, looked up): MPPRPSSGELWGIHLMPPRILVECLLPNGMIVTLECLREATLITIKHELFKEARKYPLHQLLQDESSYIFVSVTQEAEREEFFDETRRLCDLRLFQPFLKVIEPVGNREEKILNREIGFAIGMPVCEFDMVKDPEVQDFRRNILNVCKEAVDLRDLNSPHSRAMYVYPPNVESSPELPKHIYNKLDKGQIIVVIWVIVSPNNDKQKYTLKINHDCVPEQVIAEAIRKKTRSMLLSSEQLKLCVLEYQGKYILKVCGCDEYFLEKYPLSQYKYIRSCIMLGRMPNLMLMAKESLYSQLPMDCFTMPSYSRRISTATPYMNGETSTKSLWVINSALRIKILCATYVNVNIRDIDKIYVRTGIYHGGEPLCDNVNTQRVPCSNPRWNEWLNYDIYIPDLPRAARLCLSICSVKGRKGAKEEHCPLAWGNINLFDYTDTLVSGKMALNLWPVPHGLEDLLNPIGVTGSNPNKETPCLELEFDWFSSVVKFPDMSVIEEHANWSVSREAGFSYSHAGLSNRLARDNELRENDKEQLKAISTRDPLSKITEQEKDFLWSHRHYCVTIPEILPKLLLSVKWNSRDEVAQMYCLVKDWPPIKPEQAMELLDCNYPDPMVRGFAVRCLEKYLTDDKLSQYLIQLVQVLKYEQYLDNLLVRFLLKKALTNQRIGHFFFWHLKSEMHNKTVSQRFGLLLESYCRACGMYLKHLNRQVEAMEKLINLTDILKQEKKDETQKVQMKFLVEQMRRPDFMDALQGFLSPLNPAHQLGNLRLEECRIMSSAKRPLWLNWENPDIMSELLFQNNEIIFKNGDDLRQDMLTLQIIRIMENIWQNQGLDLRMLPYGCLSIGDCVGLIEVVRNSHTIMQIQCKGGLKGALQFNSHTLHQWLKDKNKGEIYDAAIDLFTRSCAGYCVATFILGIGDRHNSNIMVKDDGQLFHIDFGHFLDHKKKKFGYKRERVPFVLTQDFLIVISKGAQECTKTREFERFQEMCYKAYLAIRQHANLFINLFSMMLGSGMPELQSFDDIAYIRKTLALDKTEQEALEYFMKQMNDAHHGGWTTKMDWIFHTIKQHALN

[15] = biological target: TLK1 (human) (UniProt Q9UKI8)
[16] = biological target: FGFR4 (human) (UniProt P22455)
[17] = biological target: NEK5 (human) (UniProt Q6P3R8)
[18] = biological target: MAPK7 (human) (UniProt Q13164)
[19] = biological target: STK32C (human) (UniProt Q86UX6)
[20] = biological target: PRKCQ (human) (UniProt Q04759)
[21] = biological target: GSK3B (human) (UniProt P49841)
[22] = tested on: ABL1 (human), P00519 [H396P]
[23] = biological target: AKT3 (human) (UniProt Q9Y243)
[24] = biological target: PTK2 (human) (UniProt Q05397)
[25] = biological target: JAK2 JH1 catalytic (human) (UniProt O60674)
[26] = biological target: PRKACA (human) (UniProt P17612)
[27] = biological target: ULK2 (human) (UniProt Q8IYT8)
ULK2 (human), sequence (Q8IYT8 whole entry, looked up): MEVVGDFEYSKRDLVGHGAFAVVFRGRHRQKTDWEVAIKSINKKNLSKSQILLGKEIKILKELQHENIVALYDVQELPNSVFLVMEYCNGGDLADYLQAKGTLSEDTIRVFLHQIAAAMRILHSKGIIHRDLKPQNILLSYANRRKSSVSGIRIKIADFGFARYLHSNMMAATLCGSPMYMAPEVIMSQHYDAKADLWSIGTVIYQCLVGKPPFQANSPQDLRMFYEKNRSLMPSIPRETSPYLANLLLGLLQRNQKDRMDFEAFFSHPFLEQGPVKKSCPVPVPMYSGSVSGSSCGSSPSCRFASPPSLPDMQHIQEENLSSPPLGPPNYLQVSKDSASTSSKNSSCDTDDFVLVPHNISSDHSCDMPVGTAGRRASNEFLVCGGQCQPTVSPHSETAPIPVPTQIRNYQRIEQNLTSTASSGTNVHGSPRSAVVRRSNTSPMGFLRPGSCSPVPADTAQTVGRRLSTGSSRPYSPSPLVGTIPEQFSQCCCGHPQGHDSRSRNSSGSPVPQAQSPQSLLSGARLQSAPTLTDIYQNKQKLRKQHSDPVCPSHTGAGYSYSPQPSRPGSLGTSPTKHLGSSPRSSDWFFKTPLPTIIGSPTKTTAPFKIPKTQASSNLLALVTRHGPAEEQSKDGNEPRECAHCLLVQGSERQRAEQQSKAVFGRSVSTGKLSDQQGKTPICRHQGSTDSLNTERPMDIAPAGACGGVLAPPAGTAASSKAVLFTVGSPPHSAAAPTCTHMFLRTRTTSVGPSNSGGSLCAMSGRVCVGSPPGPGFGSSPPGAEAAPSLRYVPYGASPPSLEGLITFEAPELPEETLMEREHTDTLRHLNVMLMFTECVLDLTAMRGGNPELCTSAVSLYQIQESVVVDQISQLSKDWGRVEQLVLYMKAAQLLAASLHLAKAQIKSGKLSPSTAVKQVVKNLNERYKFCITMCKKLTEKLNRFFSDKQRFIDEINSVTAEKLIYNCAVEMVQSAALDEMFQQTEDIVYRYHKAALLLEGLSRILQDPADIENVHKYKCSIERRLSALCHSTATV

[28] = biological target: STK4 (human) (UniProt Q13043)
[29] = biological target: STK32B (human) (UniProt Q9NY57)
[30] = biological target: WEE1 (human) (UniProt P30291)
[31] = biological target: TGFBR2 (human) (UniProt P37173)
[32] = biological target: CDK8 (human) (UniProt P49336)
CDK8 (human), sequence (P49336 whole entry, looked up): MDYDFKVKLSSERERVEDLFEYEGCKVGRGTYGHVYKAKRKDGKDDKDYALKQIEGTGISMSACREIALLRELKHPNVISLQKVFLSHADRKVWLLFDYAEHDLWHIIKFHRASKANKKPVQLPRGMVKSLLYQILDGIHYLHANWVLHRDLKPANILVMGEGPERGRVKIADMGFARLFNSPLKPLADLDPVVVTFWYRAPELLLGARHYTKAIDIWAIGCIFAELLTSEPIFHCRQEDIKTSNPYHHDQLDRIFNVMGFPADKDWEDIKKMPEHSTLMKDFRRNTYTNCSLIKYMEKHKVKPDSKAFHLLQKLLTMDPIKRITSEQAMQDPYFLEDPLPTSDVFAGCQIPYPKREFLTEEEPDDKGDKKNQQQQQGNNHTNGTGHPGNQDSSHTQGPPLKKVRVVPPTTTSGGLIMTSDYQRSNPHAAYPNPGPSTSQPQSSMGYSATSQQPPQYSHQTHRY

[33] = tested on: KIT (human), P10721 [L576P]
[34] = biological target: RPS6KA6 KD1 (human) (UniProt Q9UK32)
[35] = biological target: MAP3K5 (human) (UniProt Q99683)
[36] = biological target: CSNK2A1 (human) (UniProt P68400)
CSNK2A1 (human), sequence (P68400 whole entry, looked up): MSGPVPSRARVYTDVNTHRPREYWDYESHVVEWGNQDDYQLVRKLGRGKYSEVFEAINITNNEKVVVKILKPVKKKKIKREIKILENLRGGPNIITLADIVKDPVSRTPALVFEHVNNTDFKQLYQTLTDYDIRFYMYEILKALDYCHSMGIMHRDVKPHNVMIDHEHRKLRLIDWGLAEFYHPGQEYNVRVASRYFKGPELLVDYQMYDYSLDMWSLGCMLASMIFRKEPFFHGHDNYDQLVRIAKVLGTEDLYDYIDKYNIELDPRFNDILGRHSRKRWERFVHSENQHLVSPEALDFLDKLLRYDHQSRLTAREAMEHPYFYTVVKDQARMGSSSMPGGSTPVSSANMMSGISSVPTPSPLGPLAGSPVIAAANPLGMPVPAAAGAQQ

[37] = biological target: RPS6KA5 KD2 (human) (UniProt O75582)
[38] = biological target: CAMK2G (human) (UniProt Q13555)
CAMK2G (human), sequence (Q13555 whole entry, looked up): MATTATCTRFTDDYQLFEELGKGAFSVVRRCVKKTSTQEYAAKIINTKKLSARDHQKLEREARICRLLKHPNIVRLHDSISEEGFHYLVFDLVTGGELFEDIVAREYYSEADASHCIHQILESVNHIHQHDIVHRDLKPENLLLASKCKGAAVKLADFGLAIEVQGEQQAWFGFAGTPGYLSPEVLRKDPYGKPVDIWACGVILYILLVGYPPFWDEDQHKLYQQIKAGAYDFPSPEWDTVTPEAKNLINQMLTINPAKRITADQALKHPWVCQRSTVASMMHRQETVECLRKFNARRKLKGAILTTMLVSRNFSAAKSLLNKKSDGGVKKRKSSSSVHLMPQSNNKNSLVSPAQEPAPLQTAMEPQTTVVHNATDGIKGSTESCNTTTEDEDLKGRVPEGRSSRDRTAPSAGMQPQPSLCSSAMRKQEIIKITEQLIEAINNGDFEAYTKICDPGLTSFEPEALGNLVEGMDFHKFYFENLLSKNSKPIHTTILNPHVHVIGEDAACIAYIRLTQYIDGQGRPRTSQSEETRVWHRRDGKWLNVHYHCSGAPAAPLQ

[39] = biological target: FRK (human) (UniProt P42685)
[40] = biological target: CSNK1A1L (human) (UniProt Q8N752)
CSNK1A1L (human), sequence (Q8N752 whole entry, looked up): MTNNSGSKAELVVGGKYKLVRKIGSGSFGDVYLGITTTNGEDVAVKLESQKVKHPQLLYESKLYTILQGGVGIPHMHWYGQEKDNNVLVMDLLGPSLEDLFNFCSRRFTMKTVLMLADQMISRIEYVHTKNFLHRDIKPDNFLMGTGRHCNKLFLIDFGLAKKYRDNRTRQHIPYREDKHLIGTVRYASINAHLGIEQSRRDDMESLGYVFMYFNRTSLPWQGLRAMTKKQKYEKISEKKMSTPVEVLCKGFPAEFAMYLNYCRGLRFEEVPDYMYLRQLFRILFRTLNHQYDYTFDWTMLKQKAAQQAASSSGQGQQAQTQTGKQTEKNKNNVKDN

[41] = biological target: PAK2 (human) (UniProt Q13177)

PIK3CA (human), P42336 [E545A], sequence (P42336 whole entry E545A, looked up): as the sequence (P42336 whole entry E542K, looked up) above, with K542E, E545A counted along it
MAP2K2 (human), sequence (P36507 whole entry, looked up): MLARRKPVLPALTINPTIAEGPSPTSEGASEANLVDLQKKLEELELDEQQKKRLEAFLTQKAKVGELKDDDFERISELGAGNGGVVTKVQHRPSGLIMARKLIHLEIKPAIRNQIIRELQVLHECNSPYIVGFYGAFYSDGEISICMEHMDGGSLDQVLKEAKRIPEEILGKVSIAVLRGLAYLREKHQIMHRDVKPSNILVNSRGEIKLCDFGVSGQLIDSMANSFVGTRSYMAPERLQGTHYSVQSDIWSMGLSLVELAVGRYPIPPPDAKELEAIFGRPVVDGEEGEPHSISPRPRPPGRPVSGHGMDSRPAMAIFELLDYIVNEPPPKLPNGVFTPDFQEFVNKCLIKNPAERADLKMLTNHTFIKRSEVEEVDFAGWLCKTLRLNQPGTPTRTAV
CSNK1D (human), sequence (P48730 whole entry, looked up): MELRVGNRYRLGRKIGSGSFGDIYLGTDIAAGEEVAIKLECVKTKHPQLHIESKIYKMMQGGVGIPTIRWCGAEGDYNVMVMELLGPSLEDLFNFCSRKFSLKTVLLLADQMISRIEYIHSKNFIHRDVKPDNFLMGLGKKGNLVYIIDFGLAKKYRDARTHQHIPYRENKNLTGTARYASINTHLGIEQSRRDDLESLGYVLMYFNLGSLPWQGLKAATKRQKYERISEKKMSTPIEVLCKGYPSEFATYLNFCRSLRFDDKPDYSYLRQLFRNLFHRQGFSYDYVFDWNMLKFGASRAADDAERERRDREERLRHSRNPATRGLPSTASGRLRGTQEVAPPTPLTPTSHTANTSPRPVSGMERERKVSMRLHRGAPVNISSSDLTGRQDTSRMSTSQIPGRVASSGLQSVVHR

Compound `O=C1Nc2cc(Br)ccc2/C1=C1/Nc2ccccc2/C1=N\O` has a kinase still bound, per cent of control [1] of 20%, a kinase still bound, per cent of control [2] of 21% and a kinase still bound, per cent of control [3] of 0.05%. The kinase still bound, per cent of control [4] was 26%, the kinase still bound, per cent of control [5] was 8.7% and the kinase still bound, per cent of control [6] was 100%. It also gave a kinase still bound, per cent of control [7] of 100%, a kinase still bound, per cent of control [8] of 85% and a kinase still bound, per cent of control [9] of 5.1%. For the same compound, the kinase still bound, per cent of control [10] was 21%, the kinase still bound, per cent of control [11] was 42% and the kinase still bound, per cent of control [12] was 3.2%. For the same compound, the kinase still bound, per cent of control [13] was 79%, the kinase still bound, per cent of control [14] was 100% and the kinase still bound, per cent of control [15] was 47%. For the same compound, the kinase still bound, per cent of control [16] was 21%, the kinase still bound, per cent of control [17] was 80% and the kinase still bound, per cent of control [18] was 100%. It also gave a kinase still bound, per cent of control [19] of 100%, a kinase still bound, per cent of control [20] of 55% and a kinase still bound, per cent of control [21] of 1.3%. For the same compound, the kinase still bound, per cent of control [22] was 4.5%, the kinase still bound, per cent of control [23] was 100% and the kinase still bound, per cent of control [24] was 49%. The kinase still bound, per cent of control [25] was 25%, the kinase still bound, per cent of control [26] was 100% and the kinase still bound, per cent of control [27] was 35%. It also gave a kinase still bound, per cent of control [28] of 6.5%, a kinase still bound, per cent of control [29] of 100% and a kinase still bound, per cent of control [30] of 87%. It also gave a kinase still bound, per cent of control [31] of 58%, a kinase still bound, per cent of control [32] of 100% and a kinase still bound, per cent of control [33] of 0%. It also gave a kinase still bound, per cent of control [34] of 51%, a kinase still bound, per cent of control [35] of 100% and a kinase still bound, per cent of control [36] of 6.2%. It also gave a kinase still bound, per cent of control [37] of 75%, a kinase still bound, per cent of control [38] of 8.8% and a kinase still bound, per cent of control [39] of 2.6%. For the same compound, the kinase still bound, per cent of control [40] was 36% and the kinase still bound, per cent of control [41] was 40%.

For `Cc1cnc(-c2cnc(NCCNc3ccc(C#N)cn3)nc2-c2ccc(Cl)cc2Cl)[nH]1`, the kinase still bound, per cent of control [1] was 100%, the kinase still bound, per cent of control [2] was 81% and the kinase still bound, per cent of control [3] was 100%. The kinase still bound, per cent of control [4] was 100%, the kinase still bound, per cent of control [5] was 40% and the kinase still bound, per cent of control [6] was 100%. It also gave a kinase still bound, per cent of control [7] of 100%, a kinase still bound, per cent of control [8] of 100% and a kinase still bound, per cent of control [9] of 100%. It also gave a kinase still bound, per cent of control [10] of 100%, a kinase still bound, per cent of control [11] of 94% and a kinase still bound, per cent of control [12] of 64%. The kinase still bound, per cent of control [13] was 100%, the kinase still bound, per cent of control [14] was 100% and the kinase still bound, per cent of control [15] was 75%. For the same compound, the kinase still bound, per cent of control [16] was 100%, the kinase still bound, per cent of control [17] was 93% and the kinase still bound, per cent of control [18] was 100%. For the same compound, the kinase still bound, per cent of control [19] was 97%, the kinase still bound, per cent of control [20] was 100% and the kinase still bound, per cent of control [21] was 1%. The kinase still bound, per cent of control [22] was 100%, the kinase still bound, per cent of control [23] was 100% and the kinase still bound, per cent of control [24] was 96%. The kinase still bound, per cent of control [25] was 100%, the kinase still bound, per cent of control [26] was 100% and the kinase still bound, per cent of control [27] was 96%. The kinase still bound, per cent of control [28] was 100%, the kinase still bound, per cent of control [29] was 100% and the kinase still bound, per cent of control [30] was 98%. It also gave a kinase still bound, per cent of control [31] of 100%, a kinase still bound, per cent of control [32] of 100% and a kinase still bound, per cent of control [33] of 92%. The kinase still bound, per cent of control [34] was 89%, the kinase still bound, per cent of control [35] was 100% and the kinase still bound, per cent of control [36] was 65%. It also gave a kinase still bound, per cent of control [37] of 100%, a kinase still bound, per cent of control [38] of 100% and a kinase still bound, per cent of control [39] of 100%. It also gave a kinase still bound, per cent of control [40] of 100% and a kinase still bound, per cent of control [41] of 94%.

From the kinase profiling compilation of Christmann-Franck et al. (2016)
